Source: patent US20220105150A1, “AMPHIPATHIC ALPHA-HELICAL ANTIMICROBIAL PEPTIDES TREAT INFECTIONS BY GRAM-NEGATIVE PATHOGENS” (priority 2019, published 2022)
Values after ≈ are worked out from the molar mass of the structure shown. Read-outs that look alike come from different tables or passages of the source.

Tests used:
[1] = tested on: Acinetobacter baumannii isolates resistant to classical antibiotics; assay type: cell-based
Text: Thus, shortening the number of carbon atoms between the side-chain amino group and the α-carbon atom from four (Lys) to one (diaminopropionic acid) had very little effect on antibacterial activity (Table 2). We also determined the antibacterial activity of our five AMPs against 20 additional Acinetobacter baumannii isolates from four continents, 12 different countries and 17 different cities that were resistant to 18 different antibiotics. […] Thus, it is very clear that changing the type of positively-charged residue on the polar face of these AMPs had very little effect on the antibacterial activities.

[2] = tested on: A. baumannii strain 649; assay type: cell-based, Acinetobacter baumannii; conditions: MH medium, no serum
Method: Hemoglobin release was determined spectrophotometrically at 570 nm.
Because only unbound AMP is available to interact with the therapeutic target, the extent of binding between AMPs and serum proteins can have significant effects on efficacy of these drugs. […] This assay estimates the in vivo bioavailability of our AMPs. […] An increase in MIC in the presence of serum is attributed to inhibition of antimicrobial activity due to binding to serum proteins.

[3] = tested on: Acinetobacter baumannii strains resistant to Polymyxin B and Colistin; conditions: 24 h
[4] = tested on: human red blood cells; assay: Hemolytic activity on human red blood cells
Method: For comparison, the inventors also determined the hemolytic activity after 18 hours at 37° C. Hemolysis can be determined with red blood cells (RBC) from various species including human red blood cells (hRBC).
The coupling procedure used 5 equivalents of Fmoc-D-amino acid or Fmoc-L-amino acid and HCTU (O-(1H-6-chlorobenzotriazole-1-yl)-1,1,3,3-tetramethyluronium hexafluorophosphate) and 6-Cl-HOBt (1-hydroxy-6-chloro-benztriazole) at 4.5 equivalents in DMF (Fisher Scientific, Denver, Colo.) and N-diisopropylethylamine (DIPEA) 10 equivalents (Oakwood Products, Inc., Estill, S.C.) in N-methyl-2-pyrrolidinone (NMP) (Fisher Scientific, Denver, Colo.) with the first and second couplings at room temperature for 30 min each. The deprotection procedure (removal of Fmoc protecting group) was carried out by treatment of the resin with 0.1 M HOBt (1-hydroxybenzotriazole) in DMF with 20% piperidine for 30 min. […] The resin was removed by filtration and peptide was precipitated with ice-cooled ethyl ether on ice for 15 min. Ether was decanted, the peptide was washed twice with ether and redissolved in acetonitrile/water (1:1, with 0.2% TFA) and the solution lyophilized to obtain the crude peptide. • Analytical and Preparative Purification by Reversed-Phase Chromatography: Analytical RP-HPLC: Column, Luna C18 (2), 250×4.6 mm I.D., 5 μm particle size, 100 Å pore size from Phenomenex (Torrance, Calif.). Run conditions: linear AB gradient (1% acetonitrile/min, starting from 2% acetonitrile) at a flow-rate of 1 ml/min, where eluent A is 0.2% aq. TFA and eluent B is 0.18% TFA in acetonitrile; temperature, 30° C. Preparative RP-HPLC: Peptides were dissolved in 0.2% aq. TFA containing 2% acetonitrile to a final concentration of 10 mg/ml. Following filtration through a 0.45 μm Millipore filter and subsequently through a 0.22 μm filter, the peptide solutions were loaded onto the column via multiple 20-ml injections into a 20-ml injection loop at a flow-rate of 10 ml/min. Column, Luna C18 (2), 250×30 mm I.D., 5 um particle size, 100 Å pore size from Phenomenex. Run conditions: 2% acetonitrile/min gradient up to an acetonitrile concentration 10% below that required to elute the peptide during analytical RP-HPLC, then shallow gradient elution (0.05% or 0.1% acetonitrile/min depending on the complexity of impurities near the product of interest on the analytical run of the crude peptide) at a flow-rate of 10 ml/min (same eluents as shown above for analytical RP-HPLC); at room temperature. • Temperature Profiling of Peptides on Reversed-phase HPLC to Measure Dimerization and Oligomerization: Purified peptides were analyzed on an Agilent 1200 series liquid chromatograph for temperature profiling using a Zorbax 300 SB-C8 column (150 mm×2.1 mm I.D.; 5 μm particle size, 300 Å pore size) from Agilent Technologies. […] Temperature profiling was carried out on peptide mixtures run at each temperature in 2° C. increments from 5° C. to 41° C. and 10° C. increments from 5° C. to 75° C. Twenty minutes was allowed between runs for temperature equilibration. • Characterization of Helical Structure: The mean residue molar ellipticities of peptides were determined by circular dichroism (CD) spectroscopy, using a Jasco J-815 spectropolarimeter (Jasco Inc. Easton, Md., USA) at 5° C. under KP buffer (50 mM NaH2PO4/Na2HPO4/100 mM KCl, pH 7.0) as well as in the presence of an α-helix inducing solvent, 2,2,2-trifluoroethanol, TFE, (50 mM NaH2PO4/Na2HPO4/100 mM KCl, pH 7.0 buffer/50% TFE). A 10-fold dilution of an approximately 500 μM stock solution of the peptide analogs was loaded into a 0.1 cm quartz cell and its ellipticity scanned from 195 to 250 nm.

[5] = target: the molecule itself; assay: RP-HPLC temperature profiling (self-association)
[6] = isolates resistant to classical antibiotics
[7] = strains resistant to Polymyxin B and Colistin

## CC(=O)N[C@H](CCCCN)C(=O)N[C@H](CC(C)C)C(=O)N[C@H](CCCN)C(=O)N[C@H](CO)C(=O)N[C@H](CC(C)C)C(=O)N[C@H](CC(C)C)C(=O)N[C@H](CCCN)C(=O)N[C@@H](C(=O)N[C@H](CC(C)C)C(=O)N[C@H](CO)C(=O)N[C@H](CCCN)C(=O)N[C@H](C)C(=O)N[C@H](C)C(=O)N[C@H](C)C(=O)N[C@H](C)C(=O)N[C@H](C)C(=O)N[C@H](CC(C)C)C(=O)N[C@H](CCCN)C(=O)N[C@@H](C(=O)N[C@H](CC(C)C)C(=O)N[C@H](CC(C)C)C(=O)N[C@H](CCCN)C(=O)N[C@H](C)C(=O)N[C@H](CC(C)C)C(=O)N[C@H](CO)C(=O)N[C@H](CCCN)C(N)=O)[C@H](C)O)[C@H](C)O [D85(K13A/K16A)-(Lys^1-6Orn-1), Ac-KL(Orn)SLL(Orn)TLS(Orn)AAAAAL(Orn)TLL(Orn)ALS(Orn)-amide]
[1]; strain 101887 (lower line)
  MIC 101887: 3.0 µM (≈ 8 µg/mL)
[1]; strain 961997 (lower line)
  MIC 961997: 1.5 µM (≈ 4 µg/mL)
[1]; strain 963618 (lower line)
  MIC 963618: 1.5 µM (≈ 4 µg/mL)
[1]; strain 964304 (lower line)
  MIC 964304: 1.5 µM (≈ 4 µg/mL)
[1]; strain 977751 (lower line)
  MIC 977751: 6.0 µM (≈ 16 µg/mL)
[1]; strain 981653 (lower line)
  MIC 981653: 1.5 µM (≈ 4 µg/mL)
[1]; strain 1002956 (lower line)
  MIC 1002956: 1.5 µM (≈ 4 µg/mL)
[1]; strain 1007660 (lower line)
  MIC 1007660: 1.5 µM (≈ 4 µg/mL)
[1]; strain 1010282 (lower line)
  MIC 1010282: 1.5 µM (≈ 4 µg/mL)
[1]; strain 1035166 (lower line)
  MIC 1035166: 1.5 µM (≈ 4 µg/mL)
[2]
  MIC No serum: 1.5 µM (≈ 4 µg/mL)
[3]; strain MB9941, Mueller-Hinton medium, 37° C.
  MIC MB9941: 2.9 µM (≈ 7.74 µg/mL)
[3]; strain MB9949, Mueller-Hinton medium, 37° C.
  MIC MB9949: 2.9 µM (≈ 7.74 µg/mL)
[3]; strain MB9951, Mueller-Hinton medium, 37° C.
  MIC MB9951: 1.5 µM (≈ 4 µg/mL)
[3]; strain MB9952, Mueller-Hinton medium, 37° C.
  MIC MB9952: 1.5 µM (≈ 4 µg/mL)
[3]; strain MB9953, Mueller-Hinton medium, 37° C.
  MIC MB9953: 1.5 µM (≈ 4 µg/mL)
[3]; strain MB9955, Mueller-Hinton medium, 37° C.
  MIC MB9955: 1.5 µM (≈ 4 µg/mL)
[3]; strain MB9963, Mueller-Hinton medium, 37° C.
  MIC MB9963: 2.9 µM (≈ 7.74 µg/mL)

## CC(=O)N[C@H](CCCCN)C(=O)N[C@H](CC(C)C)C(=O)N[C@@H](CN)C(=O)N[C@H](CO)C(=O)N[C@H](CC(C)C)C(=O)N[C@H](CC(C)C)C(=O)N[C@@H](CN)C(=O)N[C@@H](C(=O)N[C@H](CC(C)C)C(=O)N[C@H](CO)C(=O)N[C@@H](CN)C(=O)N[C@H](C)C(=O)N[C@H](CCCCN)C(=O)N[C@H](C)C(=O)N[C@H](C)C(=O)N[C@H](CCCCN)C(=O)N[C@H](CC(C)C)C(=O)N[C@@H](CN)C(=O)N[C@@H](C(=O)N[C@H](CC(C)C)C(=O)N[C@H](CC(C)C)C(=O)N[C@@H](CN)C(=O)N[C@H](C)C(=O)N[C@H](CC(C)C)C(=O)N[C@H](CO)C(=O)N[C@@H](CN)C(N)=O)[C@H](C)O)[C@H](C)O [D105(Lys^1-6Dap-1), Ac-KL(L-Dap)SLL(L-Dap)TLS(L-Dap)AKAAKL(L-Dap)TLL(L-Dap)ALS(L-Dap)-amide]
[4]
  HC50 Fold Improvement: >287
[4]; red cells of human, 18 h
  HC50: >1148 µM
[1]; [6]
  MIC 101887: 0.8 µM (≈ 2.09 µg/mL)
  MIC 961997: 1.5 µM (≈ 3.92 µg/mL)
  MIC 963618: 0.8 µM (≈ 2.09 µg/mL)
  MIC 964304: 1.5 µM (≈ 3.92 µg/mL)
  MIC 977751: 0.8 µM (≈ 2.09 µg/mL)
  MIC 981653: 0.8 µM (≈ 2.09 µg/mL)
  MIC 1002956: 0.8 µM (≈ 2.09 µg/mL)
  MIC 1007660: 0.8 µM (≈ 2.09 µg/mL)
  MIC 1010282: 0.8 µM (≈ 2.09 µg/mL)
  MIC 1035166: 0.8 µM (≈ 2.09 µg/mL)
[3]; [7]
  MIC MB9941: 0.8 µM (≈ 2.09 µg/mL)
  MIC MB9949: 0.8 µM (≈ 2.09 µg/mL)
  MIC MB9951: 3.0 µM (≈ 7.84 µg/mL)
  MIC MB9952: 0.8 µM (≈ 2.09 µg/mL)
  MIC MB9953: 3.0 µM (≈ 7.84 µg/mL)
  MIC MB9963: 1.5 µM (≈ 3.92 µg/mL)

## Ac-ELEKGGLEGEKGGKELEK-NH2 [random coil control peptide (RC)]
[5]
  binding result: no binding
